From ChEMBL document CHEMBL1129590, “Tyrphostins. 6. Dimeric benzylidenemalononitrile tyrophostins: potent inhibitors of EGF receptor tyrosine kinase in vitro” (J Med Chem, 1996)

What was measured:
[1] = molecular target: T1, Epidermal growth factor receptor (Homo sapiens, UniProt P00533); assay: Inhibition of epidermal growth factor receptor (EGFR) phosphorylation of the exogenous substrate poly(Glu6, Ala3,Tyr) (polyGAT)
[2] = molecular target: T1, Epidermal growth factor receptor; assay: Inhibitory activity of compound against Epidermal growth factor receptor autophosphorylation

T1 sequence (P00533 whole entry): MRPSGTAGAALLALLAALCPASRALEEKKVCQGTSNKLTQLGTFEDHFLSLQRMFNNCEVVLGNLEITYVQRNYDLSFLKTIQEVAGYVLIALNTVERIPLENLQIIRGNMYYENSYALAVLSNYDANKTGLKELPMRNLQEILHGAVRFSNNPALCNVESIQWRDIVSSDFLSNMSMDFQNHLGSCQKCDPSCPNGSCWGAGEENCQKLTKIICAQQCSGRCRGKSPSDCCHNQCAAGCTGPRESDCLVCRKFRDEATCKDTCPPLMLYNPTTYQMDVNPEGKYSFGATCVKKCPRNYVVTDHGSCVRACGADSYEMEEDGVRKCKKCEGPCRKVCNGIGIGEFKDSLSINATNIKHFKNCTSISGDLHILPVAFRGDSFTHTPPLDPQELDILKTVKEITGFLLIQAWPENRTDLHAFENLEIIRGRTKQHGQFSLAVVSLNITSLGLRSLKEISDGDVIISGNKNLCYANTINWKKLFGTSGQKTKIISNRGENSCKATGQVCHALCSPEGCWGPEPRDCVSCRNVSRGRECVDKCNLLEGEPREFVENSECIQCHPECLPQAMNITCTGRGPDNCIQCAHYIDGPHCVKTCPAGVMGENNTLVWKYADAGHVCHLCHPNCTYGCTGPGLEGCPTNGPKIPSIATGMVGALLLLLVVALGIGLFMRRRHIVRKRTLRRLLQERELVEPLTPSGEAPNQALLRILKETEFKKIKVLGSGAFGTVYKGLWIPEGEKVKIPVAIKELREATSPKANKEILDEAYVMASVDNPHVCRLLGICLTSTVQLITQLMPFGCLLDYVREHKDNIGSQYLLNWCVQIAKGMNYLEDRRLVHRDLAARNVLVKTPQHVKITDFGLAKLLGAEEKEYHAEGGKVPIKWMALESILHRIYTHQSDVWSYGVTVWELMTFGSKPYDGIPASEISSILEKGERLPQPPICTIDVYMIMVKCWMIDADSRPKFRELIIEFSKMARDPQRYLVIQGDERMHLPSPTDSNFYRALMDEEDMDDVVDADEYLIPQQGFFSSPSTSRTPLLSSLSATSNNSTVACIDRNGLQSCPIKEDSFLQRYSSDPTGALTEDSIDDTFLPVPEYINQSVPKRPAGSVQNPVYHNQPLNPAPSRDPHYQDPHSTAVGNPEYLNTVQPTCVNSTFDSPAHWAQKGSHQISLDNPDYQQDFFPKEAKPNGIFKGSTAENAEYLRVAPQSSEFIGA

SMILES | IC50 [1] [µM] | IC50 [2] [µM]
N#C/C(=C\c1ccc(O)c(O)c1)C(=O)NC1CCC(CC2CCC(NC(=O)/C(C#N)=C/c3ccc(O)c(O)c3)CC2)CC1 (configuration not stated) | – | > 83
N#C/C(=C\c1ccc(O)c(O)c1)C(=O)NCN1CCN(C(=O)/C(C#N)=C/c2ccc(O)c(O)c2)CC1 | – | > 83
N#C/C(=C\c1ccc(O)c(O)c1)C(=O)NCCCCCCCCCCNC(=O)/C(C#N)=C/c1ccc(O)c(O)c1 | 1.3 | > 100
COc1cc(/C=C(\C#N)C(=O)NCCCCNC(=O)/C(C#N)=C/c2cc(Br)c(O)c(OC)c2)cc(Br)c1O | – | 102
N#C/C(=C\c1cc(O)c(O)c([N+](=O)[O-])c1)C(=O)NCCCNC(=O)/C(C#N)=C/c1cc(O)c(O)c([N+](=O)[O-])c1 | – | > 100
N#C/C(=C\c1ccc(O)c(O)c1)C(=O)NCC1CCCC(CNC(=O)/C(C#N)=C/c2ccc(O)c(O)c2)C1 (configuration not stated) | 1.8 | > 100
N#C/C(=C\c1ccc(O)c(O)c1)C(=O)N1CCN(C(=O)/C(C#N)=C/c2ccc(O)c(O)c2)CC1 | 4 | 25
N#C/C(=C\c1ccc(O)c(O)c1)C(=O)NCCCN1CCN(CCCNC(=O)/C(C#N)=C/c2ccc(O)c(O)c2)CC1 | – | > 167
N#C/C(=C\c1ccc2[nH]ccc2c1)C(=O)NCCCNC(=O)/C(C#N)=C/c1ccc2[nH]ccc2c1 | > 100 | > 100
N#C/C(=C\c1ccc(O)c(O)c1)C(=O)NCCNC(=O)/C(C#N)=C/c1ccc(O)c(O)c1 | 0.5 | 113

Stronger by IC50 [2], values ahead:

IC50 [1] [µM] | IC50 [2] [µM] | SMILES
0.6 | 21 | N#C/C(=C\c1cc(O)c(O)c(O)c1)C(=O)NCCCCNC(=O)/C(C#N)=C/c1cc(O)c(O)c(O)c1
0.7 | 20 | N#C/C(=C\c1ccc(O)c(O)c1)C(=O)NCCCCCNC(=O)/C(C#N)=C/c1ccc(O)c(O)c1
112 | 19 | COc1cc(/C=C(\C#N)C(=O)NCCCCNC(=O)/C(C#N)=C/c2cc(OC)c(O)c([N+](=O)[O-])c2)cc([N+](=O)[O-])c1O
2.1 | 13.5 | N#C/C(=C\c1ccc(O)c(O)c1)C(=O)NC1CCCC[C@@H]1NC(=O)/C(C#N)=C/c1ccc(O)c(O)c1 (some centres not stated)
0.38 | 12 | N#C/C(=C\c1ccc(O)c(O)c1)S(=O)(=O)/C(C#N)=C/c1ccc(O)c(O)c1
0.7 | 11 | N#C/C(=C\c1ccc(O)c(O)c1)C(=O)NCCCCCCNC(=O)/C(C#N)=C/c1ccc(O)c(O)c1
1.6 | 10.3 | N#C/C(=C\c1ccc(O)c(O)c1)C(=O)NCc1cccc(CNC(=O)/C(C#N)=C/c2ccc(O)c(O)c2)c1
2.2 | 10 | N#C/C(=C\c1ccc(O)c(O)c1)C(=O)NCCN1CCN(C(=O)/C(C#N)=C/c2ccc(O)c(O)c2)CC1
0.6 | 4.3 | N#C/C(=C\c1ccc(O)c(O)c1)C(=O)NCCCCNC(=O)/C(C#N)=C/c1ccc(O)c(O)c1
0.34 | 3.9 | N#C/C(=C\c1cc(O)c(O)c(Br)c1)C(=O)NCCCNC(=O)/C(C#N)=C/c1cc(O)c(O)c(Br)c1
0.85 | 1.4 | N#C/C(=C\c1cc(O)c(O)c(Br)c1)S(=O)(=O)/C(C#N)=C/c1cc(O)c(O)c(Br)c1
